Here are results for 2 molecules from patent US20250127772A1, “SPECIFIC TETRADENTATE COPPER CHELATORS FOR THE TREATMENT OF WILSON'S DISEASE” (GUANGDONG UNIVERSITY OF TECHNOLOGY, priority 2023, published 2025).

The conditions of series [1]: oral administration in adults, WD treatment; cited from earlier work.
Series [2] deals with homozygous toxic-milk mouse model (TX model). The series is classed as in vivo. Conditions: TX mice. The text has this: The selected drug-candidate TDMQ20 has been evaluated on the homozygous toxic-milk mouse model (TX model), a regular murine model of Wilson disease, suitable for evaluation of drug-candidates (for a review, see E. Reed et al., J. Neurochem., 146, 356-373, 2018). TX mice are bearing a naturally occurring point mutation on ATP7B resulting in a methionine changed for a valine, that causes the loss of copper transportation by this protein. C57BL/6 mice have no mutation on ATP7B and were used as control mice in the evaluation of TDMQ20. TX mice were provided by Sun Yat-Sen University (Guangzhou) and C57BL/6 mice by the Guangdong experimental animal center (Guangzhou) and all experiments were performed according to protocols approved by the Welfare Laboratory Animals Committee of the Guangdong University of Technology (approval n° GDUTXS2022083 dated on 3 Aug. 2022), in the framework of the 3 Rs principle.
[…] TX mice (WD) and 8-week-old C57BL/6 mice (Control) were used. TX mice (as WD, TDMQ-L, TDMQ-M, TDMQ-H groups, respectively) received the drug TDMQ20 by intragastric gavage twice a day for 14 consecutive days (at 0, 12.5, 25.0, 50.0 mg/kg in NaCl 0.9%). On the same schedule, C57BL/6 mice (as control group) received NaCl 0.9%. Treatment of WD mice with DPA (200 mg/kg) was used as comparison (DPA group). Six groups of 6 mice were used.
At the end of the treatment period, mice (10-week old) were placed in metabolic cages for 12 h in order to collect urine and feces. At the end of this 12 h-period, mice were anesthetized using 2.5% Avertin diluted in 0.9% NaCl at a dose of […] body weight and sacrificed. Cardiac blood was collected and left at room temperature for 30 minutes before centrifugation at 4° C. at 3000 r/min for 10 minutes to obtain serum samples. During this 30-min period, liver, kidney, brain and serum were also collected. Copper concentrations in urine and feces, serum, liver, kidney and brain were determined by inductively coupled plasma mass spectrometry (ICP-MS). Data analysis was carried out using SPSS Statistics software (version 26). Data are provided as mean values±standard error of the mean (SEM). Statistical analyses were performed using one-way ANOVA for liver, feces and urine, and by non-parametric test for serum, kidney, and brain. Differences with p>0.05 were considered as no significance (ns), * p<0.05, ** p<0.01, and *** p<0.001, n=6. Graph presentations were drawn with Prism GraphPad 8.0.2.

[3] abbreviates: DPA 200 mg/kg/day gavage 14 days, mean of 6 mice ± SEM.

The structures appear in SMILES notation. Where “and” joins values, the source holds several entries; their conditions need not be identical. Equal entries are not always repeated.

On to `NCCNCCNCCN` [trientine, triethylene-tetramine], for which, in series [1], the “adverse effects observed with time” value was “bone marrow depression, anemia, skin rash and hemorrhagic gastritis”.
On to `CC(C)(S)[C@@H](N)C(=O)O` [DPA, D-penicillamine, reference compound], for which the “adverse effects observed with time” value in series [1] was “nephrotoxicity, aplasia, retinitis and neurological deterioration”. Moreover, the “copper concentration in serum versus untreated WD mice” value in series [2] (DPA 200 mg/kg/day) is on record as “not significantly higher”. In addition, in series [2] (setting [3]), the “Cu content Brain” value is given as 3.7 ± 0.3 mg/kg; the “Cu content Feces” value is on record as 96 ± 7 mg/kg; the “Cu content Kidney” value is recorded as 5.4 ± 0.3 mg/kg; the “Cu content Liver” value is 265 mg/kg and 265 ± 9 mg/kg. Further, in series [2] (setting [3]), the “Cu content Serum” value is reported as 0.39 ± 0.03 mg/L and the “Cu content Urine” value is listed as 2.8 ± 0.2 mg/L.
